{"source": "patent US20120277312A1", "about": "“Ethylgallate and Related Compounds as a Treatment for Sepsis and Septic Shock” (priority 2009, published 2012)", "test_system": "Escherichia coli septic shock in dogs", "assay": "In-vivo model of Escherichia coli septic shock in dogs", "set-up": "species or system dog", "conditions": "for PCO2: arterial; for Urine-volume: per hour", "from_the_text": "We have thus far studied 5 dogs in septic shock in which ethyl gallate was infused. We have compared the results obtained in this group with those found in septic animals (n=5) in which this treatment was not given. In addition, in preliminary experiments, we have looked at the effect of ethyl gallate infusion on hemodynamics in non-septic animals (n=3). In a time control non-septic group in which placebo (normal saline solution) was given, we have studied one animal.\nThe E coli model used in the studies was identical to that previously described (2). Sepsis was induced by the intravenous infusion of 10^10 colony forming units of live E coli (designation 011:B4). The bacteria were suspended in normal saline solution and were given over 0.5 hour. A constant infusion of approximately 5×10^9 colony forming units/hour of E coli was then maintained over the duration of the two studies.\nThe animals (16-24 kg) were initially anesthetized with thiopental sodium (20 mg/kg, intravenously) and constantly infused with sufentanil citrate (1-3 μg/min) and midazolam (5 μg/kg/min) (2). Drug rates were adjusted as required to abolish the palpebral reflex. The animals were placed in the supine position; the trachea was […] with an endotracheal tube; and the lungs were mechanically ventilated at a tidal volume of 20 ml/kg. The ventilator rate was initially set to maintain blood pH at approximately 7.35. The rate was increased as necessary to reverse the metabolic acidosis that developed over the course of the study. Approximately 100% oxygen was inspired, so that hypoxemia would not affect the results of the study.\nUnder sterile conditions and by percutaneous techniques (Arrow International, Reading, Pa.) (2), a thermister tipped catheter was advanced from the right jugular vein into the pulmonary artery to measure mean pulmonary arterial pressure (Ppa), mean pulmonary capillary wedge pressure (Pwp), mean right atrial pressure (Rap), and thermodilution cardiac output (CO) (Edwards Lifesciences, Irvine, Calif.). Another introducer was placed into the left jugular vein for administration of intravenous saline solution, the E coli infusion, and the treatment or placebo drugs. A catheter was placed into the bladder through the urethra to measure urine output over the course of the study. A polyethylene catheter was percutaneously placed into the femoral artery to measure MAP and to obtain samples of blood for arterial PO2, PCO2, pH, hematocrit (Hct), serum electrolytes and creatinine, liver function tests, and lactate concentrations. The laboratory tests were performed by the clinical laboratories at the Health Sciences Centre.\nAll vascular catheters were connected to transducers (Cobe, Argon Medical Devices Inc, Athens, Tex.), were referenced relative to the left atrium, and were connected to a chart recorder (Astro-Med, W Warwick, R.I.) (2). Heart rate (HR) was measured from the recorder tracing. Stroke-volume (SV) was calculated as CO/HR. Systemic vascular resistance (SVR) was calculated from [(MAP−Pra)/CO]*80.\nStroke work (SW) was our primary index of cardiac performance and the primary hemodynamic endpoint chosen (2). At constant preload, SW reflects both the decrease in afterload and the change in contractile function that accompany sepsis. SW was determined at approximately the same Pwp at each measurement interval. The baseline Pwp usually averaged ≈8-10 mmHg, and normal saline solution was given as necessary to maintain Pwp constant over the experimental period. SW was calculated from SV*(MAP−Pwp).\nThe purpose of this study was to determine whether ethyl-gallate could reverse the fall in MAP that occurs in this sepsis model. Ethyl gallate was infused after MAP pressure fell approximately 30 to 40% from the baseline value in which this decline in MAP was not responsive to volume infusion to return Pwp to the baseline value (septic shock condition). […]", "key": {"[1]": {"conditions": "septic dogs n = 5, 3 hrs post treatment"}, "[2]": {"conditions": "septic dogs n = 5, 5 hrs post treatment"}, "[3]": {"conditions": "septic dogs n = 5, Baseline (before sepsis and treatment)"}, "[4]": {"conditions": "septic dogs n = 5, septic shock (before treatment)"}, "[5]": {"conditions": "septic dogs n = 5, 1 hr post treatment"}, "[6]": {"conditions": "septic dogs n = 5, 2 hrs post treatment"}, "[7]": {"conditions": "septic dogs n = 5, 4 hrs post treatment"}, "[8]": {"conditions": "septic dogs, ethyl-gallate treated group"}}, "note": "Marks after values point to notes of the source that are not given here."}
{"compound": "CCOC(=O)c1cc(O)c(O)c(O)c1", "note": "[ethyl gallate]", "values": [{"measurement": "duration of increase in mean arterial pressure after bolus", "setting": "2 gram intravenous bolus after 5 hours of septic shock, one animal", "value": "over 75 minutes"}, {"measurement": "PCO2", "setting": "[1]", "value": "21 ± 2*# mmHg"}, {"measurement": "PCO2", "setting": "[2]", "value": "19 ± 2* mmHg"}, {"measurement": "PCO2", "setting": "[3]", "value": "29 ± 4", "unit": "mmHg"}, {"measurement": "PCO2", "setting": "[4]", "value": "27 ± 4", "unit": "mmHg"}, {"measurement": "duration of increase in MAP after bolus", "setting": "bolus after the study was completed, one animal of placebo group", "value": "over 1 hr"}, {"measurement": "time in which infusion increased arterial pressure", "setting": "individual septic dog, FIG. 2", "value": "approximately 18 minutes"}, {"measurement": "Urine-volume", "setting": "[5]", "value": "67 ± 58", "unit": "mL"}, {"measurement": "Urine-volume", "setting": "[6]", "value": "42 ± 19", "unit": "mL"}, {"measurement": "Urine-volume", "setting": "[1]", "value": "42 ± 19", "unit": "mL"}, {"measurement": "Urine-volume", "setting": "[7]", "value": "36 ± 26", "unit": "mL"}, {"measurement": "Urine-volume", "setting": "[2]", "value": "36 ± 26", "unit": "mL"}, {"measurement": "Urine-volume", "setting": "[4]", "value": "45 ± 34", "unit": "mL"}, {"measurement": "dogs that died over the course of the study", "setting": "septic dogs", "value": "None"}, {"measurement": "HR", "setting": "[5]", "value": "116 ± 47", "unit": "beats/min"}, {"measurement": "Ppa", "setting": "[5]", "value": "18 ± 4.8", "unit": "mmHg"}, {"measurement": "Rap", "setting": "[5]", "value": "8 ± 1.3", "unit": "mmHg"}, {"measurement": "HR", "setting": "[6]", "value": "111 ± 33", "unit": "beats/min"}, {"measurement": "Ppa", "setting": "[6]", "value": "18 ± 5", "unit": "mmHg"}, {"measurement": "Rap", "setting": "[6]", "value": "8.6 ± 1.7", "unit": "mmHg"}, {"measurement": "ALT", "setting": "[1]", "value": "210 ± 90", "unit": "IU"}, {"measurement": "AST", "setting": "[1]", "value": "268 ± 162", "unit": "IU"}, {"measurement": "Alk P'tase", "setting": "[1]", "value": "54 ± 36", "unit": "international units"}, {"measurement": "Arterial pH", "setting": "[1]", "value": "7.21 ± .08*"}, {"measurement": "HR", "setting": "[1]", "value": "107 ± 34", "unit": "beats/min"}, {"measurement": "LD", "setting": "[1]", "value": "253 ± 172* IU"}, {"measurement": "Platelets", "setting": "[1]", "value": "100 ± 37* ×10^9/L"}, {"measurement": "Ppa", "setting": "[1]", "value": "21 ± 6", "unit": "mmHg"}, {"measurement": "Rap", "setting": "[1]", "value": "8.8 ± 0.8", "unit": "mmHg"}, {"measurement": "WBC", "setting": "[1]", "value": "2.1 ± 1.9 ×10^9/L"}, {"measurement": "bilirubin", "setting": "[1]", "value": "11 ± 4.5* mmol/L"}, {"measurement": "chloride", "setting": "[1]", "value": "130 ± 6* mmol/L"}, {"measurement": "glucose", "setting": "[1]", "value": "4.4 ± 1.5", "unit": "mmol/L"}, {"measurement": "sodium", "setting": "[1]", "value": "152 ± 5", "unit": "mmol/L"}, {"measurement": "total CO2", "setting": "[1]", "value": "14 ± 2* mmol/L"}, {"measurement": "HR", "setting": "[7]", "value": "115 ± 36", "unit": "beats/min"}, {"measurement": "Ppa", "setting": "[7]", "value": "21 ± 9", "unit": "mmHg"}, {"measurement": "Rap", "setting": "[7]", "value": "9.2 ± 1.1", "unit": "mmHg"}, {"measurement": "ALT", "setting": "[2]", "value": "236 ± 56", "unit": "IU"}, {"measurement": "AST", "setting": "[2]", "value": "337 ± 141", "unit": "IU"}, {"measurement": "Alk P'tase", "setting": "[2]", "value": "91 ± 39* international units"}, {"measurement": "Arterial pH", "setting": "[2]", "value": "7.14 ± .06*"}, {"measurement": "HR", "setting": "[2]", "value": "110 ± 34", "unit": "beats/min"}, {"measurement": "LD", "setting": "[2]", "value": "335 ± 175* IU"}, {"measurement": "Platelets", "setting": "[2]", "value": "74 ± 21* ×10^9/L"}, {"measurement": "Ppa", "setting": "[2]", "value": "23 ± 7* mmHg"}, {"measurement": "Rap", "setting": "[2]", "value": "8.6 ± 1.3", "unit": "mmHg"}, {"measurement": "WBC", "setting": "[2]", "value": "2.64 ± 2.3 ×10^9/L"}, {"measurement": "chloride", "setting": "[2]", "value": "130 ± 7* mmol/L"}, {"measurement": "glucose", "setting": "[2]", "value": "3.6 ± 2.2", "unit": "mmol/L"}, {"measurement": "sodium", "setting": "[2]", "value": "153 ± 6", "unit": "mmol/L"}, {"measurement": "total CO2", "setting": "[2]", "value": "14 ± 2* mmol/L"}, {"measurement": "ALT", "setting": "[3]", "value": "52 ± 20", "unit": "IU"}, {"measurement": "AST", "setting": "[3]", "value": "18 ± 4", "unit": "IU"}, {"measurement": "Alk P'tase", "setting": "[3]", "value": "31 ± 11", "unit": "international units"}, {"measurement": "HR", "setting": "[3]", "value": "59 ± 8* beats/min"}, {"measurement": "LD", "setting": "[3]", "value": "26 ± 4", "unit": "IU"}, {"measurement": "Platelets", "setting": "[3]", "value": "196 ± 18 ×10^9/L"}, {"measurement": "Ppa", "setting": "[3]", "value": "16 ± 1.3", "unit": "mmHg"}, {"measurement": "Rap", "setting": "[3]", "value": "9 ± 1.2", "unit": "mmHg"}, {"measurement": "WBC", "setting": "[3]", "value": "3.2 ± 1.9 ×10^9/L"}, {"measurement": "chloride", "setting": "[3]", "value": "118 ± 3", "unit": "mmol/L"}, {"measurement": "glucose", "setting": "[3]", "value": "5.5 ± 0.3", "unit": "mmol/L"}, {"measurement": "sodium", "setting": "[3]", "value": "151 ± 2", "unit": "mmol/L"}, {"measurement": "total CO2", "setting": "[3]", "value": "21 ± 3", "unit": "mmol/L"}, {"measurement": "ALT", "setting": "[4]", "value": "139 ± 116", "unit": "IU"}, {"measurement": "AST", "setting": "[4]", "value": "137 ± 130", "unit": "IU"}, {"measurement": "Alk P'tase", "setting": "[4]", "value": "41 ± 27", "unit": "international units"}, {"measurement": "Arterial pH", "setting": "[4]", "value": "7.26 ± .06*"}, {"measurement": "HR", "setting": "[4]", "value": "145 ± 33", "unit": "beats/min"}, {"measurement": "LD", "setting": "[4]", "value": "128 ± 82", "unit": "IU"}, {"measurement": "Platelets", "setting": "[4]", "value": "117 ± 27* ×10^9/L"}, {"measurement": "Ppa", "setting": "[4]", "value": "15 ± 2.3", "unit": "mmHg"}, {"measurement": "Rap", "setting": "[4]", "value": "7 ± 1.3", "unit": "mmHg"}, {"measurement": "WBC", "setting": "[4]", "value": "1.3 ± 0.7 ×10^9/L"}, {"measurement": "chloride", "setting": "[4]", "value": "123 ± 8*+ mmol/L"}, {"measurement": "glucose", "setting": "[4]", "value": "5.3 ± 0.3", "unit": "mmol/L"}, {"measurement": "sodium", "setting": "[4]", "value": "150 ± 7+ mmol/L"}, {"measurement": "total CO2", "setting": "[4]", "value": "18 ± 2* mmol/L"}, {"measurement": "urine output", "setting": "septic dogs, between the two groups", "value": "no difference"}, {"measurement": "mean arterial pressure (MAP)", "setting": "septic dogs, by 1 hour post-treatment, remained over the course of study", "value": "returned to the baseline value"}, {"measurement": "serum haemoglobin concentration", "setting": "septic dogs, end of the study, vs non-ethyl gallate treated group", "value": "higher"}, {"measurement": "time post infusion by which increase in MAP was evident", "setting": "septic dogs, ethyl gallate infusion", "value": "≤ 20", "unit": "min"}, {"measurement": "cardiac output (CO)", "setting": "[8]", "value": "did not fall"}, {"measurement": "stroke volume (SV)", "setting": "[8]", "value": "did not fall"}, {"measurement": "stroke work (SW)", "setting": "septic dogs, over the 5 post-treatment measurement intervals, vs non-treated group", "value": "generally higher"}, {"measurement": "serum creatinine", "setting": "septic dogs, over the course of the study", "value": "decreased"}, {"measurement": "creatine kinase (CK), evidence of rhabdomyolysis", "setting": "septic dogs, vs non-treated group", "value": "less"}, {"measurement": "normal saline required to maintain Pwp at the baseline value", "setting": "septic dogs, vs 4.7±0.8 L in non-treated group, P<0.05", "value": "3.38 ± 0.8", "unit": "L"}, {"measurement": "systemic vascular resistance (SVR)", "setting": "septic dogs, vs septic shock condition and vs non-treated septic group", "value": "significantly increased"}]}
